Measured values taken from US20260137703A1, “2-AMINO-PYRIDO[2,3-D]PYRIMIDIN-7(8H)-ONE AND 7-AMINO-1-PYRIMIDO[4,5-D]PYRIMIDIN-2(1 H)-ONE DERIVATIVES AS EGFR INHIBITORS FOR THE TREATMENT OF CANCER” (Cancer Research Technology Limited, priority 2022, published 2026).

Legend:
[1] = molecular target: T1, Phospho-EGFR (Tyr1068) in H1975 cells (Homo sapiens, UniProt P00533, L858R/T790M); assay: HTRF pEGFR/total EGFR in H1975 cells; format: cell-based; settings: ratio pEGFR/total EGFR, compound 3 hours
T1 construct: host or cells: H1975
Summary of the method: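 Readout is the phospho-EGFR (Tyr1068) to total EGFR HTRF ratio, expressed relative to 0 μM control. Adhered H1975 cells were exposed to compound for 3 hours at 0.1% DMSO, duplicate wells, then lysed for 30 min at room temperature before two-wavelength fluorescence reading.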

[2] = molecular target: T2, Phospho-EGFR (Tyr1068) in H1975 C797S cells (CRISPR-edited EGFR C797S) (Homo sapiens, UniProt P00533, C797S/L858R/T790M); assay: HTRF pEGFR/total EGFR in H1975 C797S cells; format: cell-based; settings: ratio pEGFR/total EGFR, compound 3 hours
T2 construct: host or cells: H1975 C797S (CRISPR-edited)
Summary of the method: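 Readout is the HTRF-measured Tyr1068 phospho-EGFR to total EGFR ratio, normalised to the 0 μM control as percent. Preceding this, CRISPR-edited H1975 C797S cells, plated 24 h earlier, were exposed 3 h to duplicate compound doses in medium with 0.1% DMSO, then lysed on a shaker.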

[3] = molecular target: T3, Phospho-EGFR (Tyr1068) in A431 cells (Homo sapiens, UniProt P00533); assay: HTRF pEGFR/total EGFR in A431 cells with EGF stimulation; format: cell-based; settings: ratio pEGFR/total EGFR, compound 2.5 hours then 100 ng/ml EGF 30 mins
T3 construct: endogenous in cells; host or cells: A431
Summary of the method: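 Values are pEGFR(Tyr1068)/total EGFR HTRF ratios (665/620 nm) given as percent of the 0 μM control. Adhered A431 cells (20,000 per well, 24 h) had 2.5 h compound pretreatment in 0.1% DMSO, then 30 min of 100 ng/ml EGF before lysis.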

[4] = molecular target: CtermHisTag-mEGFR Wild type (Homo sapiens, UniProt P00533); assay: biochemical
Chain of CtermHisTag-mEGFR Wild type (P00533 whole entry): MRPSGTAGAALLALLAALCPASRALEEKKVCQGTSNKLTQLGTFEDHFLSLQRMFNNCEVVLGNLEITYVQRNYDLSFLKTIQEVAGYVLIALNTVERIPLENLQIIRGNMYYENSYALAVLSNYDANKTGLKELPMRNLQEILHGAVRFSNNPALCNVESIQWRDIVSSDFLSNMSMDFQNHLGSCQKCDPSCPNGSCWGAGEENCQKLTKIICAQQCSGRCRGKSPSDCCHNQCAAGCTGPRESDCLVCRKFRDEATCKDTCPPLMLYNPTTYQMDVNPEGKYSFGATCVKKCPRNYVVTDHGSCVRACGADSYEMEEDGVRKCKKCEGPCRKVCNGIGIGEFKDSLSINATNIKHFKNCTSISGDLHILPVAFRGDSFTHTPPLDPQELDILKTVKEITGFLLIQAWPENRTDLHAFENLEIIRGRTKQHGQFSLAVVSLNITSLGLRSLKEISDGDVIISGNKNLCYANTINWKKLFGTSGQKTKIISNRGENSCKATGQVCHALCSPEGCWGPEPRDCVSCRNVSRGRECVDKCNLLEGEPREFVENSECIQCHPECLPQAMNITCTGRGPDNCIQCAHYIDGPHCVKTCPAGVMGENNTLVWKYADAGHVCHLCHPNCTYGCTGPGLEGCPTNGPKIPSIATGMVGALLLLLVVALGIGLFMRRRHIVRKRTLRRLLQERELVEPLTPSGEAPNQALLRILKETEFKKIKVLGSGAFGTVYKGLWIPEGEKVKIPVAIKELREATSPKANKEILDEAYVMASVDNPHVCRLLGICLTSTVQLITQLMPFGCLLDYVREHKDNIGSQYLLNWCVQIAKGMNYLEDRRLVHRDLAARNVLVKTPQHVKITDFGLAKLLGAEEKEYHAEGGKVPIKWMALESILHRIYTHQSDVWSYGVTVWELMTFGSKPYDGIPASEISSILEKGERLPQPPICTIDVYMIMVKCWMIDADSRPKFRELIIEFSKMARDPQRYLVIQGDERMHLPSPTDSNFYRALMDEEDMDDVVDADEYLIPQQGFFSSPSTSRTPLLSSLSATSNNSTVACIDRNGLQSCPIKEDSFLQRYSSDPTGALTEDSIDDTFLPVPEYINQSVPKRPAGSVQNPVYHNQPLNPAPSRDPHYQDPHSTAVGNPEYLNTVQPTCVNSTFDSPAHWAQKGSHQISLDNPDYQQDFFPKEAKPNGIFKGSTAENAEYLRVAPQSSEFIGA

T2 sequence (P00533 25-1210 T790M/C797S/L858R): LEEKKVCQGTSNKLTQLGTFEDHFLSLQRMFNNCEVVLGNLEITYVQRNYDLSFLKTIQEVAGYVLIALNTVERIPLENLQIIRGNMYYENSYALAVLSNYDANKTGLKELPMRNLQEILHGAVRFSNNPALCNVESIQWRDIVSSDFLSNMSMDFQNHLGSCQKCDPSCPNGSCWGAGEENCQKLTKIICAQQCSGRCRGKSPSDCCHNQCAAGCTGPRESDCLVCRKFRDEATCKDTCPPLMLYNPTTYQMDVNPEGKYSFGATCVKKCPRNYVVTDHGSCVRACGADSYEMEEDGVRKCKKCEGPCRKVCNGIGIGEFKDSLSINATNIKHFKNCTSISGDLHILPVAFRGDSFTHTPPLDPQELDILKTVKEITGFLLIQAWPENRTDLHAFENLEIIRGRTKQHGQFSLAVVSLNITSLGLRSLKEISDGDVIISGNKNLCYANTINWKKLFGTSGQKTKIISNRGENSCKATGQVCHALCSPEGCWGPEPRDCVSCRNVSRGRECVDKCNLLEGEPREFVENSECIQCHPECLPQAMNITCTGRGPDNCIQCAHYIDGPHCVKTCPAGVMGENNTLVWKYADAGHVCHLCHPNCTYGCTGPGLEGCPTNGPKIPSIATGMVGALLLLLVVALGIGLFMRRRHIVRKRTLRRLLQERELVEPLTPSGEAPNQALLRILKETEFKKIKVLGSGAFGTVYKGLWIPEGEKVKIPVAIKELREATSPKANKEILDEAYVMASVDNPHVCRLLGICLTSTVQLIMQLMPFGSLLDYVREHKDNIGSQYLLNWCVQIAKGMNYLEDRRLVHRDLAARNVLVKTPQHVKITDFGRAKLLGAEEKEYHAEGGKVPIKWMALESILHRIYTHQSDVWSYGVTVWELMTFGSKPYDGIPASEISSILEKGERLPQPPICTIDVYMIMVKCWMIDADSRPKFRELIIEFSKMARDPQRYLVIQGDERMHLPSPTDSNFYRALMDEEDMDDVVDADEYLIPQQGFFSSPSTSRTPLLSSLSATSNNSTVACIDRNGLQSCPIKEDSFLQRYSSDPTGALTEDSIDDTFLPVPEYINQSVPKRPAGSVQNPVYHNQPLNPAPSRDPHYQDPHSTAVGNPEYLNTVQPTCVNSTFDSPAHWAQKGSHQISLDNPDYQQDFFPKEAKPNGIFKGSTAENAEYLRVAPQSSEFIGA
T1 sequence (P00533 25-1210 T790M/L858R): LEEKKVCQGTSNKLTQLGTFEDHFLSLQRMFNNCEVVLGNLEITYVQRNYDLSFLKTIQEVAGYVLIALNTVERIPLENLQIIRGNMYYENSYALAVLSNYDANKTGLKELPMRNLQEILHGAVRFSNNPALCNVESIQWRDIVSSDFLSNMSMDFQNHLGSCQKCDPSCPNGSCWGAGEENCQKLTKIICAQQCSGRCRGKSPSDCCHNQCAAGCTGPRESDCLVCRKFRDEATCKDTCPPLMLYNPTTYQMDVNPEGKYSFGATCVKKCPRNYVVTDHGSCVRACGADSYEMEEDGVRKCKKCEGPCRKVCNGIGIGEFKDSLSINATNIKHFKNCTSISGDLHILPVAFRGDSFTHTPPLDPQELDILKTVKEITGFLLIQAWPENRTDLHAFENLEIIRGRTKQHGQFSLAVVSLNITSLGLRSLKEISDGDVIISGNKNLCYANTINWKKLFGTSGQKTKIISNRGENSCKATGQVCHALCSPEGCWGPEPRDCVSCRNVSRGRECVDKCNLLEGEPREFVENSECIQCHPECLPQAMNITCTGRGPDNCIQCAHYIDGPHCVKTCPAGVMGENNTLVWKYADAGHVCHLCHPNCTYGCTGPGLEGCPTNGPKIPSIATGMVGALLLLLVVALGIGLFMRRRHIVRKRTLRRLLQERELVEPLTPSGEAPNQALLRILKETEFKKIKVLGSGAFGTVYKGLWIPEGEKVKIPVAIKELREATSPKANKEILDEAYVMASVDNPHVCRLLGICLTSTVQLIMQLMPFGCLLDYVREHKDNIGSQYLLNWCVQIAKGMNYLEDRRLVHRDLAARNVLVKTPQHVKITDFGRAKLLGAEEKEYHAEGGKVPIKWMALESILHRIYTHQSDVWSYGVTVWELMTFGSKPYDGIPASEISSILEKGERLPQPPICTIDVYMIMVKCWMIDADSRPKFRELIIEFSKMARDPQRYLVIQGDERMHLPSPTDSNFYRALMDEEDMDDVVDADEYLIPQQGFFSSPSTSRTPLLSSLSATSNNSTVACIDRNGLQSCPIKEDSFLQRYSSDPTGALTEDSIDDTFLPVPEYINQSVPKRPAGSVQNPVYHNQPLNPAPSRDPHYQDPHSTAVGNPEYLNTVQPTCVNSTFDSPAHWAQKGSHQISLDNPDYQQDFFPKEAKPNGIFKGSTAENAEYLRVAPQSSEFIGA
T3 sequence (P00533 25-1210): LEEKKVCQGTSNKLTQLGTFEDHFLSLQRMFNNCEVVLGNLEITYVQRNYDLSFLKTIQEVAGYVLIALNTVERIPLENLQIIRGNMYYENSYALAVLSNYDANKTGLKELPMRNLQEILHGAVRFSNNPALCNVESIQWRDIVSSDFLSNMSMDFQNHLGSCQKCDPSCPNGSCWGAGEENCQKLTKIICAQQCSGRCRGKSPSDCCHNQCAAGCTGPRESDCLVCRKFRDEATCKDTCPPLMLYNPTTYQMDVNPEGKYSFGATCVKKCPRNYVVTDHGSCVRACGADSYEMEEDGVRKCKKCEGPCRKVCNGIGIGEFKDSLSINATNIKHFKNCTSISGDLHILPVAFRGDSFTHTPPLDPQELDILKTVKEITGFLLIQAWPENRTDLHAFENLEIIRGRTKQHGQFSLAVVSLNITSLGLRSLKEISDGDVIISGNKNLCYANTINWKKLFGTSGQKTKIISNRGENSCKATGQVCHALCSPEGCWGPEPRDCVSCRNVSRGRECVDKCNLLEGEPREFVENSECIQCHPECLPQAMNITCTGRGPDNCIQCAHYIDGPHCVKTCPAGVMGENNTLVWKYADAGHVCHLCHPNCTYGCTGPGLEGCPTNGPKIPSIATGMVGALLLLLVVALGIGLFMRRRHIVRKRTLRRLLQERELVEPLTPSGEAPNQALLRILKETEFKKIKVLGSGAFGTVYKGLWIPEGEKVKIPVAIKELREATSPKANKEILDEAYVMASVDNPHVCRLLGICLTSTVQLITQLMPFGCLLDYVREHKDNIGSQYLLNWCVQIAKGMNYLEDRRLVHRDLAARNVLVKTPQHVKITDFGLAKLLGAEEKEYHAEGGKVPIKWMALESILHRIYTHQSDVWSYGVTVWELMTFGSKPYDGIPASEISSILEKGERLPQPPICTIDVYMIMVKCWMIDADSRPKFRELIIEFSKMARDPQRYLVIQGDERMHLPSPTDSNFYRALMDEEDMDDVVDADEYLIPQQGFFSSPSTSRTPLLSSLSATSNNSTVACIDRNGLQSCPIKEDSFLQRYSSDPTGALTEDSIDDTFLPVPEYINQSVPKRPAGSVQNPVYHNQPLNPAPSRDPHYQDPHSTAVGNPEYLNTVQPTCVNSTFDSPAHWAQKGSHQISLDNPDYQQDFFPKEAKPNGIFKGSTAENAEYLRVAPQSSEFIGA

SMILES: C#Cc1cc(=O)n2c3nc(ncc13)Nc1cccc(c1)OC[C@H]1CC[C@H](C1)C2 [Example 192, (5^1R,5^3S)-3^5-ethynyl-3^7,3^8-dihydro-7-oxa-2-aza-3(2,8)-pyrido[2,3-d]pyrimidina-1(1,3)-benzena-5(1,3)-cyclopentanacycloheptaphan-3^7-one]
- IC50 [1]: 500 to 1000 nM
- IC50 [2]: 500 to 1000 nM
- IC50 [3]: > 3 µM
- IC50 [4]: > 10 µM

SMILES: C#Cc1cc(=O)n2c3nc(ncc13)Nc1cccc(c1)OCCCC2 [Example 193, 1^5-Ethynyl-1^7,1^8-dihydro-4-oxa-2-aza-1(2,8)-pyrido[2,3-d]pyrimidina-3(1,3)-benzenacyclooctaphan-1^7-one]
- IC50 [1]: < 500 nM
- IC50 [2]: 500 to 1000 nM
- IC50 [3]: > 3 µM
- IC50 [4]: > 10 µM

SMILES: C#Cc1c(C)c(=O)n2c3nc(ncc13)Nc1ccc(N3CCN(C)CC3)c(c1)OCCCC2 [Example 194, 1^5-Ethynyl-1^6-methyl-3^4-(4-methylpiperazin-1-yl)-1^7,1^8-dihydro-4-oxa-2-aza-1(2,8)-pyrido [2,3-d]pyrimidina-3(1,3)-benzenacyclooctaphan-1^7-one]
- IC50 [1]: < 500 nM
- IC50 [2]: < 500 nM
- IC50 [3]: < 0.5 µM
- IC50 [4]: < 1 µM

SMILES: C#Cc1cc(=O)n2c3nc(ncc13)Nc1cccc(c1)COC/C=C\C2 [Example 195, (Z)-1^5-ethynyl-1^7,1^8-dihydro-5-oxa-2-aza-1(2,8)-pyrido[2,3-d]pyrimidina-3(1,3)-benzenacyclononaphan-7-en-1^7-one]
- IC50 [1]: 500 to 1000 nM
- IC50 [2]: > 3000 nM
- IC50 [3]: > 3 µM
- IC50 [4]: < 1 µM

SMILES: C#Cc1cc(=O)n2c3nc(ncc13)Nc1ccc(N3CCN(C)CC3)c(c1)COCCC2 [Example 196, 1^5-Ethynyl-34-(4-methylpiperazin-1-yl)-1^7, 1^8-dihydro-5-oxa-2-aza-1(2,8)-pyrido[2,3-d]pyrimidina-3(1,3)-benzenacyclooctaphan-1^7-one]
- IC50 [1]: > 3000 nM
- IC50 [2]: > 3000 nM
- IC50 [3]: > 3 µM
- IC50 [4]: > 10 µM

SMILES: C#Cc1cc(=O)n2c3nc(ncc13)Nc1ccc(N3CCN(C)CC3)c(c1)CC(=O)NCC2 [Example 197, 1^5-Ethynyl-3^4-(4-methylpiperazin-1-yl)-1^7,1^8-dihydro-2,6-diaza-1(2,8)-pyrido[2,3-d]pyrimidina-3(1,3)-benzenacyclooctaphane-1^7,5-dione]
- IC50 [1]: 1000 to 3000 nM
- IC50 [2]: 1000 to 3000 nM
- IC50 [3]: > 3 µM
- IC50 [4]: > 10 µM

SMILES: C#Cc1cc(=O)n2c3nc(ncc13)Nc1ccc(N3CCN(C)CC3)c(c1)NCCCC2 [Example 198, 1^5-Ethynyl-3^4-(4-methylpiperazin-1-yl)-1^7, 1^8-dihydro-2,4-diaza-1(2,8)-pyrido[2,3-d]pyrimidina-3(1,3)-benzenacyclooctaphan-1^7-one]
- IC50 [1]: 500 to 1000 nM
- IC50 [2]: < 500 nM
- IC50 [3]: > 3 µM
- IC50 [4]: > 10 µM

SMILES: C#Cc1cc(=O)n2c3nc(ncc13)Nc1ccc(N3CCN(C)CC3)c(c1)CNCCC2 [Example 199, 1^5-Ethynyl-3^4-(4-methylpiperazin-1-yl)-1^7,1^8-dihydro-2,5-diaza-1(2,8)-pyrido[2,3-d]pyrimidina-3(1,3)-benzenacyclooctaphan-1^7-one]
- IC50 [1]: > 3000 nM
- IC50 [2]: > 3000 nM
- IC50 [3]: > 3 µM
- IC50 [4]: > 10 µM

SMILES: C#Cc1cc(=O)n2c3nc(ncc13)Nc1ccc(N3CCN(C)CC3)c(c1)OCCCCC2 [Example 200, 1^5-Ethynyl-34-(4-methylpiperazin-1-yl)-1^7,1^8-dihydro-4-oxa-2-aza-1(2,8)-pyrido[2,3-d]pyrimidina-3(1,3)-benzenacyclononaphan-17-one]
- IC50 [1]: < 500 nM
- IC50 [2]: < 500 nM
- IC50 [3]: < 0.5 µM
- IC50 [4]: < 1 µM

SMILES: C#Cc1cc(=O)[nH]c2nc(Nc3ccc(N4CCN(C)CC4)c(CNC(=O)C=C)c3)ncc12 [Example 201]
- IC50 [1]: < 500 nM
- IC50 [2]: 500 to 1000 nM
- IC50 [3]: > 3 µM
- IC50 [4]: < 1 µM

SMILES: C#Cc1cc(=O)n(C2CCCC2)c2nc(Nc3cccc(N(C)[C@H]4C[C@H](CS(C)(=O)=O)C4)c3)ncc12 [Example 205]
- IC50 [1]: > 3000 nM
- IC50 [2]: > 3000 nM
- IC50 [3]: > 3 µM
- IC50 [4]: < 1 µM
